For series [1], the system named is Caki-1 cells. Description: Caki-1 xenograft tumor growth in nude mice. Type of series: in vivo, Nu/Nu mice. As to conditions: for tumor size and weight at sacrifice versus vehicle: tolvaptan 120 mg/Kg daily oral gavage or dDAVP 1 μg/Kg daily IP. How it is done: Female Athymic Nude-Foxn1^nu mice (Nu/Nu mice), 7-8 weeks old and weighing ˜25 g were procured from Envigo/Harlan. All animal studies were carried out according to the protocols approved by the University of Kansas Medical Center Institutional Animal Care and Use Committee. Mice were subcutaneously injected on the right flank region with 1×10^6 Caki-1 cells in 100 μl of DMEM medium. […] Once the tumor volume reached ˜80-100 mm^3, mice were randomized into sub-groups based on the tumor volume. Animals were administered vehicle, OPC31260 (30 mg/Kg BWt.), OPC31260 (60 mg/Kg BWt) or dDAVP (1 μg/Kg BWt.) and vehicle (saline) by daily intraperitoneal injection, (60 mg/Kg BWt) or dDAVP (1 μg/Kg BWt.) and vehicle (saline) by daily intraperitoneal injection, or tolvaptan (120 mg/Kg BWt. in 1% aqueous solution of hydroxypropyl methylcellulose-dose derived from previous study^31) or vehicle by daily oral gavage for 28 days. Body weights and tumor volumes were measured every alternate day. At the end of the study, mice were injected with BRDU (100 mg/Kg BWt. by IP) 90 minutes before sacrifice. Tumors were harvested, photographed and weighed. Tumors were flash frozen or paraffin embedded for further analysis.

The format of series [2] is in vivo. As to conditions: tolvaptan 120 mg/Kg daily oral gavage or dDAVP 1 μg/Kg daily IP, 28 days; for urine osmolality: data not shown. On the procedure:
(§1) Female Athymic Nude-Foxn1^nu mice (Nu/Nu mice), 7-8 weeks old and weighing ˜25 g were procured from Envigo/Harlan. All animal studies were carried out according to the protocols approved by the University of Kansas Medical Center Institutional Animal Care and Use Committee. Mice were subcutaneously injected on the right flank region with 1×10^6 Caki-1 cells in 100 μl of DMEM medium. One week after injection, palpable tumors appeared and tumor volume was measured with calipers following the formula, […]. Once the tumor volume reached ˜80-100 mm^3, mice were randomized into sub-groups based on the tumor volume. Animals were administered vehicle, OPC31260 (30 mg/Kg BWt.), OPC31260 (60 mg/Kg BWt) or dDAVP (1 μg/Kg BWt.) and vehicle (saline) by daily intraperitoneal injection, or tolvaptan (120 mg/Kg BWt. in 1% aqueous solution of hydroxypropyl methylcellulose-dose derived from previous study^31) or vehicle by daily oral gavage for 28 days. Body weights and tumor volumes were measured every alternate day. At the end of the study, mice were injected with BRDU (100 mg/Kg BWt. by IP) 90 minutes before sacrifice. Tumors were harvested, photographed and weighed. Tumors were flash frozen or paraffin embedded for further analysis.

Series [3] has as its system Caki-1 cells. Nature of the series: Immunostaining of xenograft tumor sections (Ki-67, BRDU, CD31). Type of series: in vivo, Nu/Nu mice. The following applies: for BRDU staining / incorporation of tumors compared to vehicle / Ki-67 staining of tumors compared to vehicle / tumor micro-vessel density (CD31 staining): OPC31260 IP, tolvaptan 120 mg/Kg oral, dDAVP 1 μg/Kg IP, daily 28 days. How it is done: as §1
Tumor tissues were fixed overnight in 4% paraformaldehyde, dehydrated in a graded alcohol series, and embedded in paraffin for histological analysis as previously described^26. Slides with 5 μm tissue sections were heated in a steamer for 20 min in citrate buffer (pH 6.0) to unmask antigens. Slides were further blocked with 10% goat serum (Invitrogen) and then incubated overnight with primary antibody (V2R, CD31, BRDU, Ki67 and p-H3). After washing the slides with PBST, slides were incubated with appropriate fluorescence-labeled secondary antibody (Invitrogen) and streptavidin HRP conjugated (Invitrogen) secondary antibody for immunoflurorescence and immunohistochemistry, respectively. Slides were also incubated in 4′,6-diamidino-2-phenylindole to visualize nuclei. For immunofluorescence staining, slides were mounted with Fluoromount G (Southern Biotech). For immunohistochemistry, slides were developed with DAB (Vector Laboratories) and counterstained with Harris haematoxylin, dehydrated, and mounted with Permount (Fisher Scientific, Waltham, Mass.). All images were captured using a Nikon 80i microscope (Tokyo, Japan) at the KUMC Imaging Center.

For series [4], the system named is Caki-1 cells. Description: TUNEL assay for apoptosis in xenograft tumor sections. Type of series: in vivo, Nu/Nu mice. As to conditions: OPC31260 IP, tolvaptan 120 mg/Kg oral, dDAVP 1 μg/Kg IP, daily 28 days. On the procedure: as §1
TUNEL assays were performed to check apoptosis using the in situ Cell Death Detection Kit (Roche Applied Science, Indianapolis, Ind.). Briefly, slides with 5-μm tumor sections were treated to a TUNEL reaction mixture containing terminal deoxynucleotidyl transferase and nucleotides, including tetramethylrhodamine-labeled dUTP. Both Dapi stained and TUNEL-positive nuclei were counted as described for proliferating cell nuclear antigen. All images were captured using a Nikon 80i microscope (Tokyo, Japan) in the KUMC Imaging Center.

Series [5] concerns pERK1/2, ERK1/2, pCREB, CREB, VEGF. Nature of the series: Immunoblotting of xenograft tumor lysates. The format is in vivo, Nu/Nu mice. As to conditions: for VEGF protein levels in tumors compared to vehicle: OPC31260 IP, daily 28 days. How it is done:
as §1
Tumors from mouse xenografts and cultured 786-O and Caki-1 cells were homogenized in SDS Laemmli buffer and loaded onto 10% SDS-polyacrylamide agarose gel electrophoresis gels, transferred to nitrocellulose membranes and blocked with 5% milk in TBST^32. Membranes were probed with primary antibody followed by wash and horseradish peroxidase secondary antibody application.

For a further series, the system named is CCRCC. Description: Immunocompetent animal model of spontaneous CCRCC. Type of series: in vivo, Vh1Δ/ΔTrp53Δ/ΔRb1Δ/Δ mice. The following applies: treatment from 30 weeks after start of tamoxifen till 56 weeks. From the text: The Vh1^Δ/ΔTrp53^Δ/ΔRb1^Δ/Δ mice (Harlander S et al, Nat Med 2017 23(7):869-877) can spontaneously develop CCRCC. Gene deletion of Vhl and tumor suppressors p53 and Rb 1 will be achieved using a Ksp1.3-CreERT2, tamoxifen-inducible system. For the studies, 6-week old Vh1^Δ/ΔTrp53^Δ/ΔRb1^Δ/ΔKsp1.3-CreERT2 mice will be treated with vehicle (saline) or tamoxifen for 14 days used to obtain wildtype control mice and Vh1^Δ/ΔTrp53^Δ/ΔRb1^Δ/Δ mice with RCC stumors. Starting 30 weeks after start of tamoxifen, the wildtype and Vh1^Δ/ΔTrp53^Δ/ΔRb1^Δ/Δ mice will be treated with vehicle, dDAVP, OPC31260, or tolvaptan till 56 weeks. The effect of V2R activation or inhibition will be monitored by MRI as well as by gross and pathological analysis and of kidneys at sacrifice.

In another series the test system is Caki-2. As to conditions: Caki-2, in vitro; cited from earlier work.
The test system of another series is A498 cells. As to conditions: A498, in vitro; cited from earlier work.
In series [6] the target is T1, V2R (Homo sapiens, UniProt P30518). As to conditions: cited from earlier work.
T1 sequence (P30518 whole entry): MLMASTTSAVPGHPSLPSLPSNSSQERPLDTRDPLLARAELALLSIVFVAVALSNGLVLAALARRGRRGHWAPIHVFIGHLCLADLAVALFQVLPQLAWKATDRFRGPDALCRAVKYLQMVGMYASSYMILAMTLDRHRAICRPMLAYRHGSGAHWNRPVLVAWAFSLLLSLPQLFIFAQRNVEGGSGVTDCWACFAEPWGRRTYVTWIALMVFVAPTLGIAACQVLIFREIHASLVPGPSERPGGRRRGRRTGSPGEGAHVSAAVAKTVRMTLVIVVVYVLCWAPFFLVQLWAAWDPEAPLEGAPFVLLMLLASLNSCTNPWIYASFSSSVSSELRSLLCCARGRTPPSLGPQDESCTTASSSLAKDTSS
The target in the next series is T2, V1bR (Homo sapiens, UniProt P47901).
T2 sequence (P47901 1-424): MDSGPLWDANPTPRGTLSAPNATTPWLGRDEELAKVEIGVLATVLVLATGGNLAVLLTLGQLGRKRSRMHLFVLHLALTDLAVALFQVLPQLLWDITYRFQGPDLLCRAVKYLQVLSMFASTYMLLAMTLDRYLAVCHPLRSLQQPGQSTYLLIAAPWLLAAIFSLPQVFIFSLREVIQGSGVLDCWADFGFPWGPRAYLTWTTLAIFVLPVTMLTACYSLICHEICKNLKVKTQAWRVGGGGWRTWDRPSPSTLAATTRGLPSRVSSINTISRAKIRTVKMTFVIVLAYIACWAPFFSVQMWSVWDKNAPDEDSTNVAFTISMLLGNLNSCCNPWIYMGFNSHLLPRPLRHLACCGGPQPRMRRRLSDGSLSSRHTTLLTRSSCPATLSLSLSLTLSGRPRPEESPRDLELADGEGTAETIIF
The following applies: cited from earlier work.

Series [7] concerns the target T1, V2R. As to conditions: cited from earlier work. This is another data set of the same source.
For series [8] the following is noted: in vivo; cited from earlier work.
The conditions of series [9]: humans; cited from earlier work.
The mark [10] stands for this setting: dDAVP 1 μg/Kg daily IP injection, day 28.
The mark [11] stands for this setting: OPC31260 30/60 mg/kg IP, tolvaptan 120 mg/Kg oral, dDAVP 1 μg/Kg IP, 28 days.
Setting [12] is: tolvaptan 120 mg/Kg oral, dDAVP 1 μg/Kg IP.

Consider `NC(=O)CC[C@@H]1NC(=O)[C@H](Cc2ccccc2)NC(=O)[C@H](Cc2ccc(O)cc2)NC(=O)CCSSC[C@@H](C(=O)N2CCC[C@H]2C(=O)N[C@H](CCCN=C(N)N)C(=O)NCC(N)=O)NC(=O)[C@H](CC(N)=O)NC1=O` [dDAVP, 1-desamino-8-d-arginine vasopressin], for which, in the series with Caki-1 cells [1] (dDAVP 1 μg/Kg daily IP injection), the “tumor volume till day 21” value is on record as “did not increase significantly”. In the series on Caki-1 cells [1] (setting [10]), the “tumor volume by day 28, higher than its baseline” value is recorded as 16 fold and the “tumor volume by day 28, higher than vehicle group” value amounted to 2 fold. Besides, the “tumor size and weight at sacrifice versus vehicle” value in the series on Caki-1 cells [1] (28 days) is “larger than in the vehicle group”. In addition, in [2], the “body weight of the mice” value is on record as “did not significantly change”, the toxicity entry was “minimal obvious toxicity” and the urine osmolality result is “increased”. Also, in the series on Caki-1 cells [3], the “BRDU staining / incorporation of tumors compared to vehicle” value is recorded as “no significant change”, the “Ki-67 staining of tumors compared to vehicle” value is on record as “significant increase” and the “tumor micro-vessel density (CD31 staining)” value is given as “increased”. The “TUNEL staining of tumors compared to vehicle” value in the series with Caki-1 cells [4] is “no significant change”. In series [5] (setting [11]), the “pCREB levels in tumor lysates” value was “increased” and the “pERK1/2 levels in tumor lysates” value is listed as “reduced”. Besides, in series [5] (setting [12]), the “VEGF protein levels in tumors compared to vehicle” value was “did not affect”. Further, the “ERK1/2 levels in tumor lysates” value in series [5] (dDAVP 1 μg/Kg IP, 28 days) was “reduced”. The “expected tumor burden / tumor growth” value with CCRCC was “increased tumor burden”. Also, the “proliferation on V2R activation” value with Caki-2 is “increased proliferation”. Also, the “proliferation on V2R activation” value with A498 cells is “increased proliferation”.

As for `CCOc1ccc2c(c1)C1(CCC(OCCN3CCOCC3)CC1)C(=O)N2S(=O)(=O)c1ccc(C(=O)NC(C)(C)C)cc1OC` (stereo not drawn) [satavaptan], the “effect on dDAVP-induced proliferation” value in the series with Caki-2 and in the series on A498 cells was “abolished dDAVP-induced proliferation” each time. Further, the “effect on time-dependent increase in cell proliferation (baseline)” value in the series on Caki-2 and with A498 cells was “did not reduce” each time.

As for `Cc1ccccc1C(=O)Nc1ccc(C(=O)N2CCCC(O)c3cc(Cl)ccc32)c(C)c1` (stereo not drawn) [tolvaptan, N-[4-[(7-chloro-2,3,4,5-tetrahydro-5-hydroxy-1H-1-benzazepin-1-yl)carbonyl]-3-methylphenyl]-2-methylbenzamide], the “tumor size and weight at sacrifice versus vehicle” value with Caki-1 cells [1] (28 days) is “smaller and weighed significantly less”. The “tumor volume versus vehicle” value in the series with Caki-1 cells [1] (tolvaptan 120 mg/Kg daily oral gavage, 28 days) is given as “significantly reduced”. In addition, in series [2], the “body weight of the mice” value is listed as “did not significantly change”, the toxicity result is “minimal obvious toxicity” and the urine osmolality result was “significantly reduced”. Moreover, in the series with Caki-1 cells [3], the “BRDU staining / incorporation of tumors compared to vehicle” value is reported as “significantly reduced”, the “Ki-67 staining of tumors compared to vehicle” value is on record as “significantly reduced” and the “tumor micro-vessel density (CD31 staining)” value was “did not appear to alter”. Also, in the series on Caki-1 cells [3] (tolvaptan 120 mg/Kg oral versus OPC31260 IP), the “effect on cell proliferation and apoptosis compared with OPC31260” value is listed as “relatively lower than that of OPC31260”. For the same compound, the “TUNEL staining of tumors compared to vehicle” value in the series on Caki-1 cells [4] is “increased”. The “CREB levels in tumor lysates” value in series [5] (OPC31260 30/60 mg/kg IP, tolvaptan 120 mg/Kg oral, 28 days) is “reduced”. For the same compound, in [5] (setting [11]), the “pCREB levels in tumor lysates” value is given as “reduced” and the “pERK1/2 levels in tumor lysates” value is reported as “reduced”. Moreover, the “VEGF protein levels in tumors compared to vehicle” value in series [5] (setting [12]) is recorded as “significantly reduced”. Besides, in the series with CCRCC, the “expected tumor burden / tumor growth” value is given as “significantly suppress tumor growth”. On V2R [6], the “selectivity in blocking [3H]AVP binding to human V2R than V1aR” value is 29 fold. Further, the “inhibition of V1bR” value on V1bR is reported as “does not inhibit”. Moreover, at V2R [7], the “intrinsic V2R agonistic effect” value is “no intrinsic V2R agonistic effect”. For the same compound, in series [8], the “oral activity compared with OPC31260” value is given as “relatively better oral activity than OPC31260”. Besides, the mean absolute bioavailability in [9] is listed as 56%.

The values above are taken from patent US11110098B2, “Methods and medicaments for the treatment of renal cell carcinoma” (University of Kansas, priority 2017, dated 2021).
